≈ marks a conversion by molar mass, not a printed value.
Experiments:
Assay type in all cases: functional
Rattus norvegicus [1] = organism: Rattus norvegicus; assay: Antiovulatory activity expressed as ratio of rats ovulated/total rats at a dose of 0.5 microg; 5/5
Rattus norvegicus [2] = organism: Rattus norvegicus; assay: Antiovulatory activity expressed as ratio of rats ovulated/total rats at a dose of 0.5 microg; 2/9
Rattus norvegicus [3] = organism: Rattus norvegicus; assay: Antiovulatory activity expressed as ratio of rats ovulated/total rats at a dose of 1.0 ug; […]
Rattus norvegicus [4] = organism: Rattus norvegicus; assay: Evaluated for histamine releasing activity
Rattus norvegicus [5] = organism: Rattus norvegicus; assay: Antiovulatory activity expressed as ratio of rats ovulated/total rats at a dose of 0.5 microg; 3/13
Rattus norvegicus [6] = organism: Rattus norvegicus; assay: Antiovulatory activity expressed as ratio of rats ovulated/total rats at a dose of 1.0 ug; 1/6
Rattus norvegicus [7] = organism: Rattus norvegicus; assay: Antiovulatory activity expressed as ratio of rats ovulated/total rats at a dose of 0.5 microg; 6/6
Rattus norvegicus [8] = organism: Rattus norvegicus; assay: Antiovulatory activity expressed as ratio of rats ovulated/total rats at a dose of 0.5 microg; 7/7
Rattus norvegicus [9] = organism: Rattus norvegicus; assay: Antiovulatory activity expressed as ratio of rats ovulated/total rats at a dose of 0.5 microg; 0/8
Rattus norvegicus [10] = organism: Rattus norvegicus; assay: Antiovulatory activity expressed as ratio of rats ovulated/total rats at a dose of 0.25 microg; 6/8
Rattus norvegicus [11] = organism: Rattus norvegicus; assay: Antiovulatory activity expressed as ratio of rats ovulated/total rats at a dose of 1.0 ug
Rattus norvegicus [12] = organism: Rattus norvegicus; assay: Antiovulatory activity expressed as ratio of rats ovulated/total rats at a dose of 0.5 microg; 3/5
Rattus norvegicus [13] = organism: Rattus norvegicus; assay: Antiovulatory activity expressed as ratio of rats ovulated/total rats at a dose of 0.5 microg; 2/6
Rattus norvegicus [14] = organism: Rattus norvegicus; assay: Antiovulatory activity expressed as ratio of rats ovulated/total rats at a dose of 0.5 microg; 5/6
Rattus norvegicus [15] = organism: Rattus norvegicus; assay: Antiovulatory activity expressed as ratio of rats ovulated/total rats at a dose of 0.5 microg; 4/6

SMILES: CC(C)C[C@H](NC(=O)[C@@H](CCCCNC(=O)c1ccc(N)nc1)NC(=O)[C@H](CCCCNC(=O)c1ccccn1)NC(=O)[C@@H](NC(=O)[C@@H](Cc1cccnc1)NC(=O)[C@@H](Cc1ccc(Cl)cc1)NC(=O)[C@H](N)Cc1ccc2ccccc2c1)[C@@H](C)O)C(=O)N[C@@H](CCCN=C(N)N)C(=O)N1CCC[C@H]1C(=O)N[C@H](C)C(=O)O
- Ratio (Rattus norvegicus [1]): 5

SMILES: CC(=O)N[C@H](Cc1ccc2ccccc2c1)C(=O)N[C@H](Cc1ccc(Cl)cc1)C(=O)N[C@H](Cc1cccnc1)C(=O)N[C@@H](CO)C(=O)N[C@@H](CCCCNC(=O)c1cccnc1)C(=O)N[C@H](CCCCNC(=O)c1cnccn1)C(=O)N[C@@H](CC(C)C)C(=O)N[C@@H](CCCCN)C(=O)N1CCC[C@H]1C(=O)N[C@H](C)C(=O)O
- Ratio (Rattus norvegicus [2]): 2
- Ratio (Rattus norvegicus [3]): 1
- ED50 (Rattus norvegicus [4]): 263 µg/mL (≈ 170 µM)

SMILES: CC(=O)N[C@H](Cc1ccc2ccccc2c1)C(=O)N[C@H](Cc1ccc(Cl)cc1)C(=O)N[C@H](Cc1cccnc1)C(=O)N[C@@H](CO)C(=O)N[C@@H](CCCCNC(=O)c1ccccn1)C(=O)N[C@H](CCCCNC(=O)c1nccnc1N)C(=O)N[C@@H](CC(C)C)C(=O)N[C@@H](CCCCNC(C)C)C(=O)N1CCC[C@H]1C(=O)N[C@H](C)C(=O)O
- Ratio (Rattus norvegicus [5]): 3
- ED50 (Rattus norvegicus [4]): 100 µg/mL (≈ 62.2 µM)
- Ratio (Rattus norvegicus [6]): 1

SMILES: CC(=O)N[C@H](Cc1ccc2ccccc2c1)C(=O)N[C@H](Cc1ccc(Cl)cc1)C(=O)N[C@H](Cc1cccnc1)C(=O)N[C@@H](CO)C(=O)N[C@@H](CCCCNC(=O)c1ccccn1)C(=O)N[C@H](CCCCNC(=O)c1cnccn1)C(=O)N[C@@H](CC(C)C)C(=O)N[C@@H](CCCCN)C(=O)N1CCC[C@H]1C(=O)N[C@H](C)C(=O)O
- Number of rats ovulated (Rattus norvegicus [7]): 6

SMILES: CC(=O)N[C@H](Cc1ccc2ccccc2c1)C(=O)N[C@H](Cc1ccc(Cl)cc1)C(=O)N[C@H](Cc1cccnc1)C(=O)N[C@@H](CO)C(=O)N[C@@H](CCCCNC(=O)c1ccccn1)C(=O)N[C@H](CCCCNC(=O)c1cccnc1N)C(=O)N[C@@H](CC(C)C)C(=O)N[C@@H](CCCN=C(N)N)C(=O)N1CCC[C@H]1C(=O)N[C@H](C)C(=O)O
- Number of rats ovulated (Rattus norvegicus [8]): 7

SMILES: CC(=O)N[C@H](Cc1ccc2ccccc2c1)C(=O)N[C@H](Cc1ccc(Cl)cc1)C(=O)N[C@H](Cc1cccnc1)C(=O)N[C@@H](CO)C(=O)N[C@@H](CCCCNC(=O)c1ccc(N)nc1)C(=O)N[C@H](CCCCNC(=O)c1ccc(N)nc1)C(=O)N[C@@H](CC(C)C)C(=O)N[C@@H](CCCCNC(C)C)C(=O)N1CCC[C@H]1C(=O)N[C@H](C)C(=O)O
- Number of rats ovulated (Rattus norvegicus [8]): 7

SMILES: CC(=O)N[C@H](Cc1ccc2ccccc2c1)C(=O)N[C@H](Cc1ccc(Cl)cc1)C(=O)N[C@H](Cc1cccnc1)C(=O)N[C@@H](CO)C(=O)N[C@@H](CCCCNC(=O)c1cccc(N)n1)C(=O)N[C@H](CCCCNC(=O)c1cccc(N)n1)C(=O)N[C@@H](CC(C)C)C(=O)N[C@@H](CCCN=C(N)N)C(=O)N1CCC[C@H]1C(=O)N[C@H](C)C(=O)O
- Number of rats ovulated (Rattus norvegicus [7]): 6

SMILES: CC(=O)N[C@H](Cc1ccc2ccccc2c1)C(=O)N[C@H](Cc1ccc(Cl)cc1)C(=O)N[C@H](Cc1cccnc1)C(=O)N[C@@H](CO)C(=O)N[C@@H](CCCCNC(=O)c1ccccn1)C(=O)N[C@H](CCCCNC(=O)c1nccnc1N)C(=O)N[C@@H](CC(C)C)C(=O)N[C@@H](CCCN=C(N)N)C(=O)N1CCC[C@H]1C(=O)N[C@H](C)C(=O)O
- Number of rats ovulated (Rattus norvegicus [7]): 6

SMILES: CC(=O)N[C@H](Cc1ccc2ccccc2c1)C(=O)N[C@H](Cc1ccc(Cl)cc1)C(=O)N[C@H](Cc1cccnc1)C(=O)N[C@@H](CO)C(=O)N[C@@H](CCCCNC(=O)c1ccccn1)C(=O)N[C@H](CCCNC(=O)c1ccc(N)nc1)C(=O)N[C@@H](CC(C)C)C(=O)N[C@@H](CCCN=C(N)N)C(=O)N1CCC[C@H]1C(=O)N[C@H](C)C(=O)O
- ED50 (Rattus norvegicus [4]): 100 µg/mL (≈ 63.3 µM)
- Ratio (Rattus norvegicus [9]): 0
- Ratio (Rattus norvegicus [10]): 6
- Ratio (Rattus norvegicus [11]): 0

SMILES: CC(C)C[C@H](NC(=O)[C@@H](CCCCNC(=O)c1ccc(N)nc1)NC(=O)[C@H](Cc1ccc(O)cc1)NC(=O)[C@H](CO)NC(=O)[C@@H](Cc1cccnc1)NC(=O)[C@@H](Cc1ccc(Cl)cc1)NC(=O)[C@H](N)Cc1ccc2ccccc2c1)C(=O)N[C@@H](CCCN=C(N)N)C(=O)N1CCC[C@H]1C(=O)N[C@H](C)C(=O)O
- Ratio (Rattus norvegicus [12]): 3

SMILES: CC(=O)N[C@H](Cc1ccc2ccccc2c1)C(=O)N[C@H](Cc1ccc(Cl)cc1)C(=O)N[C@H](Cc1cccnc1)C(=O)N[C@@H](CO)C(=O)N[C@@H](CCCCNC(=O)c1ccccn1)C(=O)N[C@H](CCCCNC(=O)c1cccc(N)n1)C(=O)N[C@@H](CC(C)C)C(=O)N[C@@H](CCCN=C(N)N)C(=O)N1CCC[C@H]1C(=O)N[C@H](C)C(=O)O
- Ratio (Rattus norvegicus [13]): 2

SMILES: CC(=O)N[C@H](Cc1ccc2ccccc2c1)C(=O)N[C@H](Cc1ccc(Cl)cc1)C(=O)N[C@H](Cc1cccnc1)C(=O)N[C@@H](CO)C(=O)N[C@@H](CCCNC(=O)c1cnccn1)C(=O)N[C@H](CCCCNC(=O)c1ccc(N)nc1)C(=O)N[C@@H](CC(C)C)C(=O)N[C@@H](CCCN=C(N)N)C(=O)N1CCC[C@H]1C(=O)N[C@H](C)C(=O)O
- Number of rats ovulated (Rattus norvegicus [7]): 6

SMILES: CC(=O)N[C@H](Cc1ccc2ccccc2c1)C(=O)N[C@H](Cc1ccc(Cl)cc1)C(=O)N[C@H](Cc1cccnc1)C(=O)N[C@@H](CO)C(=O)N[C@@H](CCCCNC(=O)c1cnccn1)C(=O)N[C@H](CCCCNC(=O)c1cnccn1)C(=O)N[C@@H](CC(C)C)C(=O)N[C@@H](CCCCN)C(=O)N1CCC[C@H]1C(=O)N[C@H](C)C(=O)O
- Ratio (Rattus norvegicus [14]): 5

SMILES: CC(=O)N[C@H](Cc1ccc2ccccc2c1)C(=O)N[C@H](Cc1ccc(Cl)cc1)C(=O)N[C@H](Cc1cccnc1)C(=O)N[C@@H](CO)C(=O)N[C@@H](CCCCNC(=O)c1cccc(N)n1)C(=O)N[C@H](CCCCNC(=O)c1cccc(N)n1)C(=O)N[C@@H](CC(C)C)C(=O)N[C@@H](CCCCNC(C)C)C(=O)N1CCC[C@H]1C(=O)N[C@H](C)C(=O)O
- Number of rats ovulated (Rattus norvegicus [8]): 7

SMILES: CC(=O)N[C@H](Cc1ccc2ccccc2c1)C(=O)N[C@H](Cc1ccc(Cl)cc1)C(=O)N[C@H](Cc1cccnc1)C(=O)N[C@@H](CO)C(=O)N[C@@H](CCCCNC(=O)c1ccccn1)C(=O)N[C@H](CCCCNC(=O)c1ncccc1N)C(=O)N[C@@H](CC(C)C)C(=O)N[C@@H](CCCCNC(C)C)C(=O)N1CCC[C@H]1C(=O)N[C@H](C)C(=O)O
- Ratio (Rattus norvegicus [15]): 4

SMILES: CC(=O)N[C@H](Cc1ccc2ccccc2c1)C(=O)N[C@H](Cc1ccc(Cl)cc1)C(=O)N[C@H](Cc1cccnc1)C(=O)N[C@@H](CO)C(=O)N[C@@H](CCCCNC(=O)c1cccnc1N)C(=O)N[C@H](CCCCNC(=O)c1cccnc1N)C(=O)N[C@@H](CC(C)C)C(=O)N[C@@H](CCCCNC(C)C)C(=O)N1CCC[C@H]1C(=O)N[C@H](C)C(=O)O
- Number of rats ovulated (Rattus norvegicus [8]): 7

SMILES: CNC[C@@H](NC(=O)[C@@H]1CCCN1C(=O)[C@H](CCCN=C(N)N)NC(=O)[C@H](CC(C)C)NC(=O)[C@@H](CCCCNC(=O)c1ccc(N)nc1)NC(=O)[C@H](CCCCNC(=O)c1ccccn1)NC(=O)[C@H](CO)NC(=O)[C@@H](Cc1cccnc1)NC(=O)[C@@H](Cc1ccc(Cl)cc1)NC(=O)[C@H](N)Cc1ccc2ccccc2c1)C(=O)O
- ED50 (Rattus norvegicus [4]): 31 µg/mL (≈ 19.6 µM)
- Ratio (Rattus norvegicus [9]): 0
- Ratio (Rattus norvegicus [10]): 6
- Ratio (Rattus norvegicus [11]): 0

SMILES: CC(=O)N[C@H](Cc1ccc2ccccc2c1)C(=O)N[C@H](Cc1ccc(Cl)cc1)C(=O)N[C@H](Cc1cccnc1)C(=O)N[C@@H](CO)C(=O)N[C@@H](CCCCNC(=O)c1ccc(N)nc1)C(=O)N[C@H](CCCCNC(=O)c1ccc(N)nc1)C(=O)N[C@@H](CC(C)C)C(=O)N[C@@H](CCCN=C(N)N)C(=O)N1CCC[C@H]1C(=O)N[C@H](C)C(=O)O
- Number of rats ovulated (Rattus norvegicus [7]): 6

SMILES: CC(=O)N[C@H](Cc1cnc2ccccc2c1)C(=O)N[C@H](Cc1ccc(Cl)cc1)C(=O)N[C@H](Cc1cccnc1)C(=O)N[C@@H](CO)C(=O)N[C@@H](CCCNC(=O)c1cnccn1)C(=O)N[C@H](CCCNC(=O)c1ccc(N)nc1)C(=O)N[C@@H](CC(C)C)C(=O)N[C@@H](CCCN=C(N)N)C(=O)N1CCC[C@H]1C(=O)N[C@H](C)C(=O)O
- Ratio (Rattus norvegicus [1]): 5

SMILES: CC(=O)N[C@H](Cc1ccc2ccccc2c1)C(=O)N[C@H](Cc1ccc(Cl)cc1)C(=O)N[C@H](Cc1cccnc1)C(=O)N[C@@H](CO)C(=O)N[C@@H](CCCCNC(=O)c1nccnc1N)C(=O)N[C@H](CCCCNC(=O)c1nccnc1N)C(=O)N[C@@H](CC(C)C)C(=O)N[C@@H](CCCN=C(N)N)C(=O)N1CCC[C@H]1C(=O)N[C@H](C)C(=O)O
- Ratio (Rattus norvegicus [15]): 4

SMILES: C[C@@H](NC(=O)[C@@H]1CCCN1C(=O)[C@H](CCCN=C(N)N)NC(=O)[C@H](Cc1c[nH]cn1)NC(=O)[C@@H](CCCCNC(=O)c1ccc(N)nc1)NC(=O)[C@H](CCCCNC(=O)c1ccccn1)NC(=O)[C@H](CO)NC(=O)[C@@H](Cc1cccnc1)NC(=O)[C@@H](Cc1ccc(Cl)cc1)NC(=O)[C@H](N)Cc1ccc2ccccc2c1)C(=O)O
- Number of rats ovulated (Rattus norvegicus [7]): 6

SMILES: CC(=O)N[C@H](Cc1ccc2ccccc2c1)C(=O)N[C@H](Cc1ccc(Cl)cc1)C(=O)N[C@H](Cc1cccnc1)C(=O)N[C@@H](CO)C(=O)N[C@@H](CCCCNC(=O)c1cnccn1)C(=O)N[C@H](CCCCNC(=O)c1cccnc1)C(=O)N[C@@H](CC(C)C)C(=O)N[C@@H](CCCCN)C(=O)N1CCC[C@H]1C(=O)N[C@H](C)C(=O)O
- Number of rats ovulated (Rattus norvegicus [7]): 6

SMILES: CC(=O)N[C@H](Cc1ccc2ccccc2c1)C(=O)N[C@H](Cc1ccc(Cl)cc1)C(=O)N[C@H](Cc1cccnc1)C(=O)N[C@@H](CO)C(=O)N[C@@H](CCCCNC(=O)c1cccnc1N)C(=O)N[C@H](CCCCNC(=O)c1cccnc1N)C(=O)N[C@@H](CC(C)C)C(=O)N[C@@H](CCCN=C(N)N)C(=O)N1CCC[C@H]1C(=O)N[C@H](C)C(=O)O
- Number of rats ovulated (Rattus norvegicus [7]): 6

From ChEMBL document CHEMBL1127579, “Novel, potent luteinizing hormone-releasing hormone antagonists with improved solubility in water” (1994)
